Converted amounts (≈) assume the structure as drawn. The source made the active and inactive calls. The rule behind the calls is not given here.
How the values were obtained:
[1] = Tmax in male Sprague-Dawley rat at 2 mg/kg, iv measured after 12 hrs by LC-MS/MS analysis; type: ADME, organism-based; conditions: in vivo
[2] = Apparent volume of distribution in male Sprague-Dawley rat at 2 mg/kg, iv measured after 12 hrs by LC-MS/MS analysis; type: ADME, organism-based; conditions: in vivo, read-out: Vz
[3] = Acute toxicity in C57BL/6J mouse assessed as change in body weight at 88 mg/kg; type: organism-based; conditions: in vivo
HK-2 [4] = assay: Inhibition of STING downstream signal pathway in cisplatin stimulated human HK-2 cells assessed as reduction in p-IRF3 level by […] analysis; type: cell-based; conditions: dose 1.25-5 µM
HK-2 [5] = assay: Inhibition of STING downstream signal pathway in cisplatin stimulated human HK-2 cells assessed as reduction in STING protein level at 1.25 to 5 uM pretreated with cisplatin followed by compound addition by Western blotting analysis; type: cell-based; conditions: dose 1.25-5 µM
[6] = AUC (0 to t) in male Sprague-Dawley rat at 2 mg/kg, iv measured after 12 hrs by LC-MS/MS analysis; type: ADME, organism-based; conditions: in vivo
Mus musculus [7] = assay: Renoprotective activity against cisplatin-induced C57BL/6J mouse acute kidney injury model assessed as reduction in kidney weight at 25 to 50 mg/kg, ip measured after 72 hrs; type: functional, organism-based; conditions: dose 25-50 mg/kg
[8] = Acute toxicity in C57BL/6J mouse assessed as change in body weight at 30 mg/kg; type: organism-based; conditions: in vivo
[9] = target: Transcription factor p65 (Homo sapiens) (UniProt Q04206); assay: Inhibition of NF-kappaB P65 nuclear translocation in human HK-2 cells at 0.25 to 5 uM by DAPI staining based fluorescence microscopic analysis; type: cell-based; conditions: dose 0.25-5 µM
Transcription factor p65 (Homo sapiens), sequence (Q04206 whole entry): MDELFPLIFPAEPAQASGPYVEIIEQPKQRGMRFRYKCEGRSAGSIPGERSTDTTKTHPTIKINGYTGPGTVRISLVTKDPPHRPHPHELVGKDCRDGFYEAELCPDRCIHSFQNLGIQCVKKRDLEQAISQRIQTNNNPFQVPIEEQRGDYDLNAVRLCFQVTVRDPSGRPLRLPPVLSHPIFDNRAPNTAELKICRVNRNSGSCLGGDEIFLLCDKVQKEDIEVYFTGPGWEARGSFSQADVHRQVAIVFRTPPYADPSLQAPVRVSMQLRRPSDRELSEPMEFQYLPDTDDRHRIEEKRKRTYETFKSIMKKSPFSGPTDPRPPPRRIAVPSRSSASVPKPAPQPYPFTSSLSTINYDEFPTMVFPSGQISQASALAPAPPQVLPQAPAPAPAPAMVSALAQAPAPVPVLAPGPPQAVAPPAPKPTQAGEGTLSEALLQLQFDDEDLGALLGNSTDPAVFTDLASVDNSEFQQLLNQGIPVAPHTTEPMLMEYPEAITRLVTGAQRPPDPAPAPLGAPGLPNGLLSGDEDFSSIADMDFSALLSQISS

[10] = target: T1, Protein cereblon/Stimulator of interferon genes protein (Homo sapiens, UniProt Q96SW2+Q86WV6); assay: PROTAC activity at CRBN/STING in human THP-1 cells assessed as induction of STING degradation at 5 uM incubated for 24 hrs in presence of MG132 by Western blotting analysis; type: cell-based
Target sequence in this assay (Q86WV6 whole entry, looked up): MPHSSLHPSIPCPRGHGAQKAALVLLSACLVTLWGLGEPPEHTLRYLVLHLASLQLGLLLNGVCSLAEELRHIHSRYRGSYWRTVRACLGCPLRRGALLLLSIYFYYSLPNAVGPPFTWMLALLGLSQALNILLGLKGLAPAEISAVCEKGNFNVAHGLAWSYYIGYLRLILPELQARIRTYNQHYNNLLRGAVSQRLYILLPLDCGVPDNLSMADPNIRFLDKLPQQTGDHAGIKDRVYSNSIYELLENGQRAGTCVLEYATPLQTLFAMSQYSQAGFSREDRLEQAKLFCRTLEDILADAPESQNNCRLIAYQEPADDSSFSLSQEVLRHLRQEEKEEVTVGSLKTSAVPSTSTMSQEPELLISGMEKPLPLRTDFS
Target sequence in this assay (Q96SW2 whole entry, looked up): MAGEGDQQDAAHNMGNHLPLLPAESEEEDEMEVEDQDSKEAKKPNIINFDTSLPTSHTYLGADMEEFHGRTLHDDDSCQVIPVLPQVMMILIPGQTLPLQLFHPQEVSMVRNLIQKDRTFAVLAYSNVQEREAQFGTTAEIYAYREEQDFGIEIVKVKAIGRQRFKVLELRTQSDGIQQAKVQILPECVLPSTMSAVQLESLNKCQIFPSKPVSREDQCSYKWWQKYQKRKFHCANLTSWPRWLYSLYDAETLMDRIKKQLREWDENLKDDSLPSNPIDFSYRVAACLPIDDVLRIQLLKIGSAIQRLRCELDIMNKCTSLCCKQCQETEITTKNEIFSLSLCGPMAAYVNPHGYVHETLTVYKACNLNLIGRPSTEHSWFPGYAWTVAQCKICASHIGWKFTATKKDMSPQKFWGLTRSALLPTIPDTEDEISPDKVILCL

[11] = Cmax in male Sprague-Dawley rat at 2 mg/kg, iv measured after 12 hrs by LC-MS/MS analysis; type: ADME, organism-based; conditions: in vivo
[12] = Toxicity in cisplatin-induced acute kidney injury C57BL/6J mouse model assessed as morphological abnormality in liver at 25 to 50 mg/kg, ip by H and E staining based analysis; type: organism-based; conditions: in vivo, dose 25-50 mg/kg
THP-1 [13] = assay: PROTAC activity at CRBN/ERK in human THP-1 cells assessed as induction of ERK degradation at 1.25 to 20 uM measured after 24 hrs by Western blotting analysis; type: cell-based; conditions: dose 1.25-20 µM
[14] = target: T1, Protein cereblon/Stimulator of interferon genes protein; assay: PROTAC activity at CRBN/STING in human THP-1 cells assessed as induction of STING degradation measured after 24 hrs by Western blotting analysis; type: cell-based
Target sequence in this assay (Q96SW2 whole entry): as the sequence (Q96SW2 whole entry, looked up) above
Target sequence in this assay (Q86WV6 whole entry): as the sequence (Q86WV6 whole entry, looked up) above

[15] = MRT (0 to t) in male Sprague-Dawley rat at 2 mg/kg, iv measured after 12 hrs by LC-MS/MS analysis; type: ADME, organism-based; conditions: in vivo
HEK-293T = assay: Cytotoxicity against human HEK293T cells assessed as reduction in cell viability at 0.5 to 120 uM incubated for 24 hrs by MTT assay; type: toxicity, cell-based; conditions: dose 0.5-120 µM
[16] = target: T2, Protein cereblon/Stimulator of interferon genes protein (Mus musculus) (UniProt Q3TBT3+Q8C7D2); assay: In vivo inhibition of STING/TBK1/NF-kappaB signaling in C57BL/6J mouse assessed as decrease in serum CXCL10 level at 25 to 50 mg/kg, ip measured after 72 hrs by ELISA; type: functional, organism-based; conditions: dose 25-50 mg/kg
T2 sequence (Q3TBT3 whole entry, looked up): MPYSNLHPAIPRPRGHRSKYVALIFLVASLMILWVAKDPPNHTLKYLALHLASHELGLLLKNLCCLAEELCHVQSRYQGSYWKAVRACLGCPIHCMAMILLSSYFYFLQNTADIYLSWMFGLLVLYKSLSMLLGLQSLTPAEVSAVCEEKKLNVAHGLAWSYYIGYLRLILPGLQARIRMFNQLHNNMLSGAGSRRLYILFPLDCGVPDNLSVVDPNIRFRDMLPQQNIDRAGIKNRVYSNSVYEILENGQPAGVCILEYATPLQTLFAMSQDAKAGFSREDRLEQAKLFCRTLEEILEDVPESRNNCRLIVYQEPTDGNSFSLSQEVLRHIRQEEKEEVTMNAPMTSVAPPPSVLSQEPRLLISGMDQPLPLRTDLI
T2 sequence (Q8C7D2 whole entry, looked up): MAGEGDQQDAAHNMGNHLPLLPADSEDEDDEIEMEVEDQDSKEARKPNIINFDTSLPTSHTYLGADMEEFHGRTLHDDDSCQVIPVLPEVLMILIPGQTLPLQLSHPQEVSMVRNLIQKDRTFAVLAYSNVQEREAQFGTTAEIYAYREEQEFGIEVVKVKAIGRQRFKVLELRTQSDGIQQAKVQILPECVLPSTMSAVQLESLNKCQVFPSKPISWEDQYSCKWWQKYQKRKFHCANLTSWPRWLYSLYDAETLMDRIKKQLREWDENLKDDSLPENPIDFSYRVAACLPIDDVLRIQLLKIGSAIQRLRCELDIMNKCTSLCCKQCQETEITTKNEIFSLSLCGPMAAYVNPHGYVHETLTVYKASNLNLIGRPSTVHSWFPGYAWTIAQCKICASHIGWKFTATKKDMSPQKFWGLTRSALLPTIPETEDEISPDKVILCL

[17] = target: T1, Protein cereblon/Stimulator of interferon genes protein; assay: PROTAC activity at CRBN/STING in human THP-1 cells assessed as induction of STING degradation by Western blotting analysis; type: cell-based; conditions: time 1-48 hrs
Target sequence in this assay (Q86WV6 whole entry, looked up): as the sequence (Q86WV6 whole entry, looked up) above
Target sequence in this assay (Q96SW2 whole entry, looked up): as the sequence (Q96SW2 whole entry, looked up) above

Mus musculus [18] = assay: Renoprotective activity against cisplatin-induced C57BL/6J mouse acute kidney injury model assessed as reduction in BUN level at 25 to 50 mg/kg, ip measured after 72 hrs; type: functional, organism-based; conditions: dose 25-50 mg/kg
[19] = Water solubility of the compound at 2 mg by HPLC analysis; type: physicochemical
[20] = target: T1, Protein cereblon/Stimulator of interferon genes protein; assay: PROTAC activity at CRBN/STING in human THP-1 cells assessed as induction of STING degradation at 5 uM measured after 24 hrs by Western blotting analysis relative to control; type: cell-based
Target sequence in this assay (Q86WV6 whole entry, looked up): as the sequence (Q86WV6 whole entry, looked up) above
Target sequence in this assay (Q96SW2 whole entry, looked up): as the sequence (Q96SW2 whole entry, looked up) above

[21] = Metabolic stability in human liver microsomes assessed as metabolic factor relative to control; type: ADME, Microsome
[22] = target: T2, Protein cereblon/Stimulator of interferon genes protein (Mus musculus); assay: In vivo inhibition of STING/TBK1/NF-kappaB signaling in C57BL/6J mouse assessed as decrease in serum IL-6 level at 25 to 50 mg/kg, ip measured after 72 hrs by ELISA; type: functional, organism-based; conditions: dose 25-50 mg/kg
Mus musculus [23] = assay: Renoprotective activity against cisplatin-induced C57BL/6J mouse acute kidney injury model assessed as decrease in disease activity index score at 25 to 50 mg/kg, ip measured after 72 hrs; type: functional, organism-based; conditions: dose 25-50 mg/kg
THP-1 [24] = assay: PROTAC activity at CRBN/STAT3 in human THP-1 cells assessed as induction of STAT3 degradation at 1.25 to 20 uM by Western blotting analysis; type: cell-based; conditions: dose 1.25-20 µM
[25] = Acute toxicity in C57BL/6J mouse; conditions: in vivo, dose 30 mg/kg
[26] = Cytotoxicity against rat BRL-3A cells assessed as reduction in cell viability at 0.5 to 120 uM incubated for 24 hrs by MTT assay; type: toxicity, cell-based; conditions: dose 0.5-120 µM
BV-2 = assay: Cytotoxicity against mouse BV-2 cells assessed as reduction in cell viability at > 60 uM incubated for 24 hrs by MTT assay; type: toxicity, cell-based; conditions: bv-2, 24 h
[27] = Clearance in male Sprague-Dawley rat at 2 mg/kg, iv measured after 12 hrs by LC-MS/MS analysis; type: ADME, organism-based; conditions: in vivo
[28] = Acute toxicity in C57BL/6J mouse assessed as change in body weight at 179 mg/kg; type: organism-based; conditions: in vivo
[29] = Acute toxicity in C57BL/6J mouse assessed as change in body weight at 125 mg/kg; type: organism-based; conditions: in vivo
[30] = target: T2, Protein cereblon/Stimulator of interferon genes protein (Mus musculus); assay: In vivo inhibition of STING/TBK1/NF-kappaB signaling in C57BL/6J mouse assessed as decrease in STING protein level in kidney at 25 to 50 mg/kg, ip measured after 72 hrs by Western blotting analysis; type: functional, organism-based; conditions: dose 25-50 mg/kg
[31] = Acute toxicity in C57BL/6J mouse assessed as survival at 30 to 179 mg/kg; type: organism-based; conditions: in vivo, dose 30-179 mg/kg
Mus musculus [32] = assay: Renoprotective activity against cisplatin-induced C57BL/6J mouse acute kidney injury model assessed as survival rate at 25 mg/kg, ip measured after 72 hrs relative to control; type: functional
[33] = target: T2, Protein cereblon/Stimulator of interferon genes protein (Mus musculus); assay: In vivo inhibition of STING/TBK1/NF-kappaB signaling in C57BL/6J mouse assessed as decrease in P-TBK1 protein level in kidney at 25 to 50 mg/kg, ip measured after 72 hrs by Western blotting analysis; type: functional, organism-based; conditions: dose 25-50 mg/kg
[34] = target: T2, Protein cereblon/Stimulator of interferon genes protein (Mus musculus); assay: In vivo inhibition of STING/TBK1/NF-kappaB signaling in C57BL/6J mouse assessed as decrease in P-P65 protein level in kidney at 25 to 50 mg/kg, ip measured after 72 hrs by Western blotting analysis; type: functional, organism-based; conditions: dose 25-50 mg/kg

SMILES: O=C(/C=C/C(=O)N1CCN(CC2CCN(c3cccc4c3C(=O)N(C3CCC(=O)NC3=O)C4=O)C2)CC1)Nc1ccc(NC(=O)c2ccc([N+](=O)[O-])o2)cc1 (stereo unspecified)
- Tmax [1]: 4.8 min
- Vd [2]: 3.9 L/kg
- Activity [3]: 24.9 g
- inhibition (HK-2 [4]): Dose-dependent-effect
- inhibition (HK-2 [5]): Active
- AUC(0-t) at 12 h [6]: 729 ng·h/mL
- Activity (Mus musculus [7]): Active
- Activity [8]: 25.1 g
- inhibition [9]: Active
- Activity [10]: inactive
- Cmax [11]: 2390 ng/mL
- Activity [12]: Non-toxic
- Activity (THP-1 [13]): inactive
- DC50 [14]: 620 nM
- MRT last at 12 h [15]: 12 min
- Activity (HEK-293T): Non-toxic
- inhibition [16]: Active
- Activity [17]: Time-dependent-effect
- Activity (Mus musculus [18]): Active
- solubility [19]: 3.317 µg/mL (≈ 4.41 µM)
- Activity [20]: 90.6%
- Activity [21]: 15.8%
- inhibition [22]: Active
- Activity_index (Mus musculus [23]): Active
- Activity (THP-1 [24]): inactive
- LD50 [25]: > 179 mg/kg
- Activity [26]: Non-toxic
- Activity (BV-2): Non-toxic
- CL [27]: 53.3 mL/min/kg
- Activity [28]: 22.8 g
- Activity [29]: 23.4 g
- inhibition [30]: Active
- survival [31]: 100%
- survival at 25 mg/kg (Mus musculus [32]): 78%
- inhibition [33]: Active
- inhibition [34]: Active

From ChEMBL document CHEMBL6182863, “Discovery of novel rigid STING PROTAC degraders as potential therapeutics for acute kidney injury” (Eur J Med Chem, 2025)
